Starred links: 1 amine or outer side, 2 acyl side, 3 side chain; linkers in the order of their positions; H or OH if unused. Positions of bridges follow the written chain, without caps; N, C: chain ends. Non-standard residues stand in square brackets, D forms with d. Residues, ends and D or L forms follow the SMILES beside them. *: point of attachment. X1 = CC[C@H](C)[C@@H](N[*:1])[C@@H](O)CC(=O)O[C@H](C(=O)[C@H](C)C(=O)[*:2])C(C)C; NMeY = CN[C@@H](Cc1ccc(O)cc1)C(=O)O; dNMeL = CN[C@H](CC(C)C)C(=O)O; Pyruvoyl = CC(=O)C(=O)*
Legend:
[1] = system: CAKI-1 human renal tumor xenograft; experiment: Aplidine with temsirolimus, CAKI-1 xenograft in athymic nude mice (Example 4); format: in vivo; conditions: for % Inhibition G4: temsirolimus 10 mg/kg/day; for % Inhibition G3: temsirolimus 20 mg/kg/day; for antitumor activity as single agent (monotherapy): temsirolimus 10 and 20 mg/kg/day; for % Inhibition G2: aplidine 0.06 mg/kg/day
Procedure: Female athymic nude mice (Harlan Sprague Dawley, Madison, Wis.) were utilized for all experiments. Mice were implanted with a cell suspension when mice were 6-8 weeks of age. Animals were housed in ventilated rack caging with food and water ad libitum. The mice were acclimated for at least 5 days prior to tumor implantation. […] The tumor model used in this study was CAKI-1, which was implanted in the animals as disclosed in Example 2.
Tumor measurements were determined as disclosed in Example 1. When tumor growth was within an average size range of 140±34 mg (mean±SD), mice were randomized into the treatment and control groups based on tumor weight by using LabCat® In Life module V 8.0 SP1 tumor tracking and measurement software.
The treatment of CAKI-1-tumor-bearing mice was initiated on DPI (Day Post Implantation) 21. Body weights were recorded on treatment days and when tumor sizes were measured. In those days wherein the two drugs were administered the same day, the combination therapy groups were treated by co-administering the two drugs at the same time, with no attempt to sequence the treatments.
(§1) Aplidine was provided in the form of vials of lyophilized aplidine powder which was reconstituted in Cremophor EL/ethanol/water (CEW) 15/15/70 to a concentration of 0.5 mg/ml. The aplidine solution in CEW was diluted in 0.9% Saline to the dosing formulation concentrations, being the final proportion of CEW of 0.18/0.18/0.84.
(§2) Temsirolimus was provided in the form of vials containing a non-aqueous, ethanolic, sterile solution of temsirolimus, 25 mg/ml. […] Then, the solution was further diluted in 0.9% Saline to the dosing formulation concentrations.
(§3) Tumor size measurements were recorded twice weekly from the treatment initiation until the termination of the study. Tumor growth inhibition was assessed comparing the mean tumor weight between the two agents in combination (aplidine and temsirolimus) against temsirolimus mean tumor weight at the different concentrations assayed.
(§4) Mean, standard deviation and standard error of the mean were determined for tumor volume for all animal groups at all assessments. Student's t test was performed on tumor volumes at each measurement day, including at the end of the study, to determine whether there were any statistically significant differences between combination treatment groups and single monotherapy treatment groups.
The definition and criteria for the evaluation of potentiation and the degree of additivity for the combination therapy were the same as those disclosed in Example 1.

[2] = system: MRI-H-121 human renal tumor xenograft; experiment: Aplidine with temsirolimus, MRI-H-121 xenograft in athymic nude mice (Example 3); format: in vivo; conditions: for antitumor activity as single agent (monotherapy): doses tested, temsirolimus 10 and 20 mg/kg/day; for % Inhibition G2: aplidine 0.06 mg/kg/day
Procedure: Female athymic nude mice (Harlan Sprague Dawley, Madison, Wis.) were utilized for all experiments. Mice were implanted with tumor fragments when mice were 5 weeks of age. Animals were housed in ventilated rack caging, 5 mice per cage, with food and water ad libitum. The mice were acclimated for 1 week prior to being implanted with tumor fragments.
Tumor measurements were determined as disclosed in Example 1. When tumor growth was within an average size range of 95±1.6 mg (mean±SD), mice were randomized into the treatment and control groups based on tumor weight by using LabCat® In Life module V 8.0 SP1 tumor tracking and measurement software.
Body weights were recorded on treatment days and when tumor sizes were measured. In those days wherein the two drugs were administered the same day, the combination therapy groups were treated by co-administering the two drugs at the same time, with no attempt to sequence the treatments.
as §1, §2, §3, §4
The definition and criteria for the evaluation of potentiation and the degree of additivity for the combination therapy were the same as those disclose in Example 1.

[3] = G3: temsirolimus 20 mg/kg/day IP
[4] = G4: temsirolimus 10 mg/kg/day IP
[5] = G2: aplidine 0.060 mg/kg/day IP

## CO[C@H]1C[C@@H]2CC[C@@H](C)[C@@](O)(O2)C(=O)C(=O)N2CCCC[C@H]2C(=O)O[C@H]([C@H](C)C[C@@H]2CC[C@@H](OC(=O)C(C)(CO)CO)[C@H](OC)C2)CC(=O)[C@H](C)/C=C(\C)[C@@H](O)[C@@H](OC)C(=O)[C@H](C)C[C@H](C)/C=C/C=C/C=C/1C [temsirolimus]
[1]; [3]
  % T/C on day 21: 98.3%
  % T/C on day 24: 76.7%
  % T/C on day 27: 75.3%
  % T/C on day 30: 47.0%
  % T/C on day 34: 42.2%
  % T/C on day 38: 48.0%
  % T/C on day 42: 51.9%
  % T/C on day 45: 58.9%
  % T/C on day 48: 63.6%
  % T/C on day 56: 75.3%
  % T/C on day 58: 78.8%
[1]; [4]
  % T/C on day 21: 95.7%
  % T/C on day 24: 69.9%
  % T/C on day 27: 81.3%
  % T/C on day 30: 53.2%
  % T/C on day 34: 50.4%
  % T/C on day 38: 51.1%
  % T/C on day 42: 60.3%
  % T/C on day 45: 66.7%
  % T/C on day 48: 66.2%
  % T/C on day 56: 73.4%
  % T/C on day 58: 76.5%
[1]; day 21
  % Inhibition G4: 4.3%
  % Inhibition G3: 1.7%
[1]; day 24
  % Inhibition G4: 30.1%
  % Inhibition G3: 23.3%
[1]; day 27
  % Inhibition G4: 18.7%
  % Inhibition G3: 24.7%
[1]; day 30
  % Inhibition G4: 46.8%
  % Inhibition G3: 53.0%
[1]; day 34
  % Inhibition G4: 49.6%
  % Inhibition G3: 57.8%
[1]; day 38
  % Inhibition G4: 48.9%
  % Inhibition G3: 52.0%
[1]; day 42
  % Inhibition G4: 39.7%
  % Inhibition G3: 48.1%
[1]; day 45
  % Inhibition G4: 33.3%
  % Inhibition G3: 41.1%
[1]; day 48
  % Inhibition G4: 33.8%
  % Inhibition G3: 36.4%
[1]; day 56
  % Inhibition G4: 26.6%
  % Inhibition G3: 24.7%
[1]; day 58
  % Inhibition G4: 23.5%
  % Inhibition G3: 21.2%
[1]
  antitumor activity as single agent (monotherapy): did not meet the NCI criteria for activity
[2]
  antitumor activity as single agent (monotherapy): very sensitive
[2]; temsirolimus 10 mg/kg/day, day 12
  % Inhibition G3: 4.2%
[2]; temsirolimus 10 mg/kg/day, day 15
  % Inhibition G3: 37.8%
[2]; temsirolimus 10 mg/kg/day, day 19
  % Inhibition G3: 57.7%
[2]; temsirolimus 10 mg/kg/day, day 22
  % Inhibition G3: 54.3%
[2]; temsirolimus 10 mg/kg/day, day 27
  % Inhibition G3: 61.7%
[2]; temsirolimus 10 mg/kg/day, day 30
  % Inhibition G3: 63.1%
[2]; temsirolimus 10 mg/kg/day, day 34
  % Inhibition G3: 67.4%
[2]; temsirolimus 10 mg/kg/day, day 37
  % Inhibition G3: 64.2%
[2]; temsirolimus 10 mg/kg/day, day 40
  % Inhibition G3: 57.5%
[2]; temsirolimus 10 mg/kg/day, day 47
  % Inhibition G3: 56.2%
[2]; temsirolimus 20 mg/kg/day, day 12
  % Inhibition G3: 2.3%
[2]; temsirolimus 20 mg/kg/day, day 15
  % Inhibition G3: 33.2%
[2]; temsirolimus 20 mg/kg/day, day 19
  % Inhibition G3: 58.5%
[2]; temsirolimus 20 mg/kg/day, day 22
  % Inhibition G3: 64.9%
[2]; temsirolimus 20 mg/kg/day, day 27
  % Inhibition G3: 72.6%
[2]; temsirolimus 20 mg/kg/day, day 30
  % Inhibition G3: 71.5%
[2]; temsirolimus 20 mg/kg/day, day 34
  % Inhibition G3: 73.7%
[2]; temsirolimus 20 mg/kg/day, day 37
  % Inhibition G3: 71.6%
[2]; temsirolimus 20 mg/kg/day, day 40
  % Inhibition G3: 71.5%
[2]; temsirolimus 20 mg/kg/day, day 47
  % Inhibition G3: 73.0%

## CC[C@H](C)[C@H]1NC(=O)[C@@H](NC(=O)[C@@H](CC(C)C)N(C)C(=O)[C@@H]2CCCN2C(=O)C(C)=O)[C@@H](C)OC(=O)[C@H](Cc2ccc(OC)cc2)N(C)C(=O)[C@@H]2CCCN2C(=O)[C@H](CC(C)C)NC(=O)[C@@H](C)C(=O)[C@H](C(C)C)OC(=O)C[C@@H]1O [aplidine, dehydrodidemnin B] (Pyruvoyl-P[dNMeL]T[X1]LP[NMeY](Me); ester 3-C)
[1]; [5]
  % T/C on day 21: 98.2%
  % T/C on day 24: 94.6%
  % T/C on day 27: 75.6%
  % T/C on day 30: 66.0%
  % T/C on day 34: 81.0%
  % T/C on day 38: 91.1%
  % T/C on day 42: 84.1%
  % T/C on day 45: 80.7%
  % T/C on day 48: 80.1%
  % T/C on day 56: 89.8%
  % T/C on day 58: 89.9%
[1]; day 21
  % Inhibition G2: 1.8%
[1]; day 24
  % Inhibition G2: 5.4%
[1]; day 27
  % Inhibition G2: 24.4%
[1]; day 30
  % Inhibition G2: 34.0%
[1]; day 34
  % Inhibition G2: 19.0%
[1]; day 38
  % Inhibition G2: 8.9%
[1]; day 42
  % Inhibition G2: 15.9%
[1]; day 45
  % Inhibition G2: 19.3%
[1]; day 48
  % Inhibition G2: 19.9%
[1]; day 56
  % Inhibition G2: 10.2%
[1]; day 58
  % Inhibition G2: 10.1%
[1]
  antitumor activity as single agent (monotherapy): inactive
[2]; day 12
  % Inhibition G2: 1.7%
[2]; day 15
  % Inhibition G2: −9.0%
[2]; day 19
  % Inhibition G2: 15.1%
[2]; day 22
  % Inhibition G2: 6.0%
[2]; day 27
  % Inhibition G2: 13.7%
[2]; day 30
  % Inhibition G2: 2.5%
[2]; day 34
  % Inhibition G2: 3.0%
[2]; day 37
  % Inhibition G2: 5.0%
[2]; day 40
  % Inhibition G2: −7.6%
[2]; day 47
  % Inhibition G2: −1.6%
[2]
  antitumor activity as single agent (monotherapy): refractory
